In assay [1] the target is T1, ShHTL6 (Striga hermonthica, UniProt A0A0M4AUV4).
T1 sequence (A0A0M4AUV4 1-271): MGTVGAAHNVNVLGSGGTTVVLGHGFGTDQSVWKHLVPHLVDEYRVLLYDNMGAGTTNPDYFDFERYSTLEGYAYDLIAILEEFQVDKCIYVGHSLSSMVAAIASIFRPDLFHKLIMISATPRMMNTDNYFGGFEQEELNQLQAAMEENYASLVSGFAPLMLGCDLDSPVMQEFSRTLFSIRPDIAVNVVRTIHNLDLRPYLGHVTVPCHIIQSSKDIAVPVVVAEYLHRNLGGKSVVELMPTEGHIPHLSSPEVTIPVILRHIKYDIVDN
The assay is described as follows: YLG assay (inhibition of YLG hydrolysis) with recombinant ShHTL6. The format is biochemical. The procedure: (§1) The ORF fragment of ShHTL6 and ShHTL7 was synthesized using IDT gBlock service. The PCR amplified ShHTL6 and ShHTL7 fragment was digested with Nco I and EcoR I, and the digested product was introduced into a modified pET28 vector with an N-terminal His8 tag. Escherichia coli BL21(DE3) was used for protein expression. The overnight culture (12 ml) was added to a fresh LB medium (1.2 L) containing kanamycin (50 mg/L) at 37°C. After OD600 reached 0.8, 0.1 mM IPTG was added and the cell was further incubated at 16°C for 21 h. The culture medium was centrifuged at 3700 g and the pellet was stored at −20°C until use. The pellet was resuspended and sonicated in a lysis buffer (50 mM Tris buffer (pH 8.0) containing 500 mM NaCl, 10 mM 2-mercaptoethanol, and 10% glycerol). The supernatant was purified by Ni Sepharose TM 6 Fast Flow (500 μl, Cytiva). After washing with the washing buffer (50 mM Tris buffer (pH 8.0) containing 500 mM NaCl and 20 mM imidazole), The bound protein was eluted with elution buffer (50 mM Tris buffer (pH 8.0) containing 500 mM NaCl and 200 mM imidazole). The eluate was concentrated using VIVASPIN Turbo 15 (Sartorius), and the concentration was adjusted to 5 mg/ml. The purified protein was aliquoted to the appropriate volume, immediately frozen in liquid nitrogen, and stored at −80°C until use.
(§2) After YLG was incubated with recombinant ShHTL6 or ShHTL7 for 1 h, the fluorescence was measured by spectraMax i5 (Molecular Devices) at excitation by 480 nm and detection by 520 nm. IC50 values were calculated using the online tool Quest GraphTM IC50 Calculator (AAT Bioquest, Inc., United States; https://www.aatbio.com/tools/ ic50-calculator).

In assay [2] the test system is Arabidopsis wild type Col-0. The assay is described as follows: Growth promoting assay and root phenotypic analysis. It counts as in vivo. As to conditions: 1 μM on agar plate. The procedure: Sterilized seeds of the Arabidopsis wild type Col-0 were put on the plate containing 1% (w/v) agar-solidified 0.5× Murashige and Skoog (MS) medium, 1% sucrose. Test compounds were dissolved in the medium at 1 μM by 10,000 times dilution from each acetone stock (final concentration of acetone was 0.01% (v/v)). To evaluate the growth promoting effect, these seedlings were cultured horizontally at 22°C for 20 days under LED light (105 μmol/m^2/s) with a 16 h light/8 h dark photoperiod. After the cultivation, flesh weight of shoot was measured. For root phenotypic analysis, these seedlings were cultured verticaly at 22°C for 11 days under LED light (105 μmol/m^2/s) with a 16 h light/8 h dark photoperiod. After the cultivation, root length was measured by using ImageJ software and number of lateral roots was counted by using a microscope.

The test system of assay [3] is Orobanche minor seeds. The assay is described as follows: Germination assay, Orobanche minor seeds. It counts as in vivo. As to conditions: O. minor seeds. Here is the method:
Orobanche minor seeds were washed with 70% EtOH, and then sonicated for 4 min in 1% sodium hypochlorite solution containing 0.2% Tween-20. The seeds were then washed 10 times with sterile water and suspended in 0.1% agar solution. The seeds were loaded onto 5-mm glass fiber filter disks (20–70 seeds/disk) and were conditioned at 23°C for 15 days. Each disk was transferred into a 96-well plate. A 30 μl aliquot of test chemical solution was added to the well. For the germination assay, the chemical solutions were prepared by 1,000 times dilution from each acetone stock solution with water (final acetone concentration was 0.1%). GR24 solution (0.1% acetone) and sterile water (0.1% acetone) was used as positive and negative control, respectively. The 96 well plates were incubated for 5 days at 23°C and the number of total seeds and germinated seeds was counted.

Assay [4] has as its target T2, ShHTL7 (Striga hermonthica, UniProt A0A0M3PNA2).
T2 sequence (A0A0M3PNA2 1-271): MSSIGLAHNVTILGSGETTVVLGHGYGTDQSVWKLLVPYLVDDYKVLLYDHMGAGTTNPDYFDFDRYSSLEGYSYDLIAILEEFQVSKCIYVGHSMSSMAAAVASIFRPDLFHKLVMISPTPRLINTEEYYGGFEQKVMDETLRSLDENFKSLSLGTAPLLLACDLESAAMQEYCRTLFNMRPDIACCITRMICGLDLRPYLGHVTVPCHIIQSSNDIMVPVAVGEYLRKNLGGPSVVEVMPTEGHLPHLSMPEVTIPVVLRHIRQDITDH
The assay is described as follows: YLG assay (inhibition of YLG hydrolysis) with recombinant ShHTL7. It counts as biochemical. As to conditions: 1 h incubation, read-out: IC50 in YLG assay. Here is the method:
as §1, §2

The target in assay [5] is T2, ShHTL7. The assay is described as follows: Hydrolysis assay with recombinant ShHTL7. The format is biochemical. The settings on record: 10 μM substrate, 30°C, 60 min. The procedure: as §1
Hydrolysis assays were carried out at 30°C for 60 min in 100 μl of a reaction buffer containing 0.13 pmol recombinant ShHTL7 or AtD14, 10 μM of substrate in 50 mM Phosphate-Na buffer (pH 7.0) containing 2% acetone. The enzyme reaction was stopped by addition of 100 μl of acetonitrile containing 1-naphtaleneacetic acid (NAA; 0.5 ng/μl) as an internal standard. After centrifuged at 13,000 rpm for 5 min, each sample was subjected to LC–MS/MS analysis equipped with reverse-phase column (CORTECS UPLC Phenyl 1.6 μm, ϕ2.1 × 75 mm; Waters). The concentration of remaining substrate and reaction product was calculated by using NAA as an internal standard. Detailed information about the analytical condition is described in Supplementary Table 1.

Experimental findings from paper PMC9002265, “A New Series of Strigolactone Analogs Derived From Cinnamic Acids as Germination Inducers for Root Parasitic Plants” (Frontiers in Plant Science, 2022) are described below.

Molecules are shown by their SMILES.

On to `CC1=CC(OC(=O)/C=C\c2ccccc2)OC1=O` (stereo not shown) [c-CASL1], for which the IC50 in assay [1] is 900 nM; in assay [4] it was 590 nM. Moreover, the lateral root density result in assay [2] (11 days) was “increased”. In assay [2] (11 days), the primary root length result is on record as “inhibited”. For the same compound, in assay [2] (20 days), the shoot fresh weight result was “increase”. For the same compound, the “germination-inducing activity, times stronger than the corresponding trans isomer” value in assay [3] is reported as “approximately 10 times”. Besides, in assay [5], the “hydrolysis by HTL7” value is reported as “can hydrolyze”.

As a reminder, the IC50 is the concentration that inhibits the measured activity by half.
